In general, MIC refers to the least concentration at which growth counts as inhibited.

In brackets after ≈: the same amount, converted by molar mass.

Format in all cases: functional
Experiment [1] concerns Klebsiella pneumoniae. Put plainly: Antibacterial activity against Klebsiella pneumoniae clinical isolate assessed as inhibition of bacterial growth incubated for 24 hrs.
The subject of experiment [2] is Escherichia coli. Put plainly: Antibacterial activity against Escherichia coli ATCC 25922 assessed as inhibition of bacterial growth incubated for 24 hrs.
For experiment [3], the system named is Staphylococcus aureus. Put plainly: Antibacterial activity against Staphylococcus aureus ATCC 25923 assessed as inhibition of bacterial growth incubated for 24 hrs.
The test system of experiment [4] is Staphylococcus aureus. The experiment can be described thus: Antibacterial activity against Staphylococcus aureus ATCC 29213 assessed as inhibition of bacterial growth incubated for 24 hrs.
Experiment [5] concerns Pseudomonas aeruginosa. The experiment can be described thus: Antibacterial activity against Pseudomonas aeruginosa ATCC 27853 assessed as inhibition of bacterial growth incubated for 24 hrs.
Experiment [6] relates to Staphylococcus aureus. Put plainly: Antibacterial activity against Staphylococcus aureus clinical isolate assessed as inhibition of bacterial growth incubated for 24 hrs.
The test system of experiment [7] is Escherichia coli. The experiment can be described thus: Antibacterial activity against Escherichia coli clinical isolate assessed as inhibition of bacterial growth incubated for 24 hrs.
In experiment [8] the test system is Pseudomonas aeruginosa. Put plainly: Antibacterial activity against Pseudomonas aeruginosa clinical isolate assessed as inhibition of bacterial growth incubated for 24 hrs.
The subject of experiment [9] is Enterococcus faecalis. Put plainly: Antibacterial activity against Enterococcus faecalis clinical isolate assessed as inhibition of bacterial growth incubated for 24 hrs.
Experiment [10] concerns Acinetobacter baumannii. The experiment can be described thus: Antibacterial activity against Acinetobacter baumannii clinical isolate assessed as inhibition of bacterial growth incubated for 24 hrs.
The test system of experiment [11] is Staphylococcus aureus. The experiment can be described thus: Antibacterial activity against methicillin resistant Staphylococcus aureus clinical isolate assessed as inhibition of bacterial growth incubated for 24 hrs.

For `N#CCc1cc2c(cc1F)c(=O)c(C(=O)O)cn2CC1CC1`, the MIC in [1] amounted to 2 µg/mL (≈ 6.66 µM); in [2], 0.25 µg/mL (≈ 0.833 µM); in experiment [3], 0.25 µg/mL (≈ 0.833 µM); in experiment [4], 1 µg/mL (≈ 3.33 µM); in experiment [5], 1 µg/mL (≈ 3.33 µM); in [6] it was 256 µg/mL (≈ 853 µM). The MIC is 1 µg/mL (≈ 3.33 µM) in experiment [7]; 0.25 µg/mL (≈ 0.833 µM) in [8]; 64 µg/mL (≈ 213 µM) in experiment [9]; 0.25 µg/mL (≈ 0.833 µM) in experiment [10]; 0.5 µg/mL (≈ 1.67 µM) in [11].
On to `Cc1ccc(Cn2cc(C(=O)O)c(=O)c3cc(F)c(CC#N)cc32)cc1`, for which the MIC is 256 µg/mL (≈ 731 µM) in experiment [1]; 0.25 µg/mL (≈ 0.714 µM) in experiment [2]; 0.25 µg/mL (≈ 0.714 µM) in experiment [3]; 256 µg/mL (≈ 731 µM) in [4]; 4 µg/mL (≈ 11.4 µM) in experiment [5]; 256 µg/mL (≈ 731 µM) in [6]. In addition, the MIC in experiment [7] came out at 256 µg/mL (≈ 731 µM); in experiment [8], 0.5 µg/mL (≈ 1.43 µM); in experiment [9], 4 µg/mL (≈ 11.4 µM); in experiment [10] it was 256 µg/mL (≈ 731 µM); in experiment [11], 8 µg/mL (≈ 22.8 µM).
Consider `N#CCc1cc2c(cc1F)c(=O)c(C(=O)O)cn2Cc1ccc([N+](=O)[O-])cc1`, for which the MIC amounted to 8 µg/mL (≈ 21 µM) in [1]; 128 µg/mL (≈ 336 µM) in experiment [2]; 32 µg/mL (≈ 83.9 µM) in experiment [3]; 256 µg/mL (≈ 671 µM) in [4]; 32 µg/mL (≈ 83.9 µM) in experiment [5]; 256 µg/mL (≈ 671 µM) in experiment [6]. The MIC in experiment [7] amounted to 256 µg/mL (≈ 671 µM); in experiment [8] it was 4 µg/mL (≈ 10.5 µM); in experiment [9], 8 µg/mL (≈ 21 µM); in [10], 256 µg/mL (≈ 671 µM); in experiment [11], 128 µg/mL (≈ 336 µM).
As for `CCCCn1cc(C(=O)O)c(=O)c2cc(F)c(CC#N)cc21`, the MIC in experiment [1] came out at 1 µg/mL (≈ 3.31 µM); in experiment [2] it was 0.5 µg/mL (≈ 1.65 µM); in [3], 0.25 µg/mL (≈ 0.827 µM); in experiment [4], 8 µg/mL (≈ 26.5 µM); in [5], 4 µg/mL (≈ 13.2 µM); in experiment [6], 8 µg/mL (≈ 26.5 µM). Besides, the MIC was found to be 4 µg/mL (≈ 13.2 µM) in [7]; 0.5 µg/mL (≈ 1.65 µM) in [8]; 64 µg/mL (≈ 212 µM) in [9]; 256 µg/mL (≈ 847 µM) in experiment [10]; 0.5 µg/mL (≈ 1.65 µM) in experiment [11].
As for `Cn1cc(C(=O)O)c(=O)c2cc(F)c(CC#N)cc21`, the MIC came to 0.5 µg/mL (≈ 1.92 µM) in experiment [1]; 1 µg/mL (≈ 3.84 µM) in experiment [2]; 1 µg/mL (≈ 3.84 µM) in experiment [3]; 8 µg/mL (≈ 30.7 µM) in experiment [4]; 2 µg/mL (≈ 7.69 µM) in experiment [5]; 1 µg/mL (≈ 3.84 µM) in [6]. Besides, the MIC in experiment [7] stood at 16 µg/mL (≈ 61.5 µM); in experiment [8], 0.5 µg/mL (≈ 1.92 µM); in [9], 4 µg/mL (≈ 15.4 µM); in [10], 4 µg/mL (≈ 15.4 µM); in [11], 2 µg/mL (≈ 7.69 µM).
Consider `N#CCc1cc2c(cc1F)c(=O)c(C(=O)O)cn2Cc1cnc(Cl)s1`, for which the MIC in [1] was 8 µg/mL (≈ 21.2 µM); in [2], 1 µg/mL (≈ 2.65 µM); in experiment [3], 8 µg/mL (≈ 21.2 µM); in [4], 4 µg/mL (≈ 10.6 µM); in [5], 2 µg/mL (≈ 5.29 µM); in [6], 8 µg/mL (≈ 21.2 µM). Further, the MIC in experiment [7] worked out at 8 µg/mL (≈ 21.2 µM); in experiment [8], 0.5 µg/mL (≈ 1.32 µM); in experiment [9], 16 µg/mL (≈ 42.4 µM); in experiment [10], 16 µg/mL (≈ 42.4 µM); in [11], 1 µg/mL (≈ 2.65 µM).
In the case of `CCCCCCn1cc(C(=O)O)c(=O)c2cc(F)c(CC#N)cc21`, the MIC in experiment [1] worked out at 8 µg/mL (≈ 24.2 µM); in experiment [2], 0.5 µg/mL (≈ 1.51 µM); in experiment [3], 0.25 µg/mL (≈ 0.757 µM); in [4], 256 µg/mL (≈ 775 µM); in experiment [5] it was 256 µg/mL (≈ 775 µM); in experiment [6] it was 256 µg/mL (≈ 775 µM). In addition, the minimum inhibitory concentration (MIC) in experiment [7] came to 4 µg/mL (≈ 12.1 µM); in experiment [8] it was 2 µg/mL (≈ 6.05 µM); in [9] it was 256 µg/mL (≈ 775 µM); in experiment [10] it was 256 µg/mL (≈ 775 µM); in experiment [11], 256 µg/mL (≈ 775 µM).
On to `C=CCn1cc(C(=O)O)c(=O)c2cc(F)c(CC#N)cc21`, for which the MIC turned out to be 1 µg/mL (≈ 3.49 µM) in experiment [1]; 0.5 µg/mL (≈ 1.75 µM) in experiment [2]; 0.5 µg/mL (≈ 1.75 µM) in experiment [3]; 4 µg/mL (≈ 14 µM) in experiment [4]; 4 µg/mL (≈ 14 µM) in [5]; 2 µg/mL (≈ 6.99 µM) in [6]. For the same compound, the MIC in [7] was 256 µg/mL (≈ 894 µM); in experiment [8], 0.5 µg/mL (≈ 1.75 µM); in [9], 16 µg/mL (≈ 55.9 µM); in experiment [10], 8 µg/mL (≈ 27.9 µM); in [11], 0.5 µg/mL (≈ 1.75 µM).
Regarding `N#CCc1cc2c(cc1F)c(=O)c(C(=O)O)cn2Cc1ccccn1`, the MIC in experiment [1] was 4 µg/mL (≈ 11.9 µM); in experiment [2] it was 0.25 µg/mL (≈ 0.741 µM); in [3], 1 µg/mL (≈ 2.96 µM); in [4], 8 µg/mL (≈ 23.7 µM); in experiment [5], 16 µg/mL (≈ 47.4 µM); in [6] it was 256 µg/mL (≈ 759 µM). The MIC amounted to 8 µg/mL (≈ 23.7 µM) in [7]; 0.5 µg/mL (≈ 1.48 µM) in experiment [8]; 8 µg/mL (≈ 23.7 µM) in [9]; 2 µg/mL (≈ 5.93 µM) in experiment [10]; 32 µg/mL (≈ 94.9 µM) in [11].
On to `N#CCc1cc2c(cc1F)c(=O)c(C(=O)O)cn2CC1CCCCC1`, for which the MIC in experiment [1], in [2], in experiment [3], in experiment [4], in experiment [5] and in experiment [6] was 256 µg/mL (≈ 748 µM) in each case. The MIC in experiment [7] was 256 µg/mL (≈ 748 µM); in [8], 16 µg/mL (≈ 46.7 µM); in experiment [9] it was 256 µg/mL (≈ 748 µM); in experiment [10] it was 256 µg/mL (≈ 748 µM); in experiment [11], 256 µg/mL (≈ 748 µM).
As for `CCCCCCCCn1cc(C(=O)O)c(=O)c2cc(F)c(CC(=O)O)cc21`, the minimal inhibitory concentration (MIC) in experiment [1] came out at 0.5 µg/mL (≈ 1.32 µM); in [2], 2 µg/mL (≈ 5.3 µM); in experiment [3], 4 µg/mL (≈ 10.6 µM); in experiment [4], 4 µg/mL (≈ 10.6 µM); in [5] it was 2 µg/mL (≈ 5.3 µM); in experiment [6] it was 16 µg/mL (≈ 42.4 µM). For the same compound, the MIC was found to be 2 µg/mL (≈ 5.3 µM) in [7]; 1 µg/mL (≈ 2.65 µM) in experiment [8]; 2 µg/mL (≈ 5.3 µM) in experiment [9]; 4 µg/mL (≈ 10.6 µM) in experiment [10]; 4 µg/mL (≈ 10.6 µM) in experiment [11].
As to `N#CCc1cc2c(cc1F)c(=O)c(C(=O)O)cn2Cc1cc(F)ccc1F`, the minimal inhibitory concentration (MIC) stood at 16 µg/mL (≈ 43 µM) in experiment [1]; 256 µg/mL (≈ 688 µM) in experiment [2]; 256 µg/mL (≈ 688 µM) in [3]; 256 µg/mL (≈ 688 µM) in experiment [4]; 256 µg/mL (≈ 688 µM) in experiment [5]; 4 µg/mL (≈ 10.7 µM) in experiment [6]. For the same compound, the MIC in [7] was 256 µg/mL (≈ 688 µM); in experiment [8], 256 µg/mL (≈ 688 µM); in experiment [9], 256 µg/mL (≈ 688 µM); in experiment [10], 64 µg/mL (≈ 172 µM); in experiment [11], 256 µg/mL (≈ 688 µM).
Take `O=C(O)Cc1cc2c(cc1F)c(=O)c(C(=O)O)cn2Cc1ccccn1`: the MIC in [1] was found to be 8 µg/mL (≈ 22.5 µM); in experiment [2], 32 µg/mL (≈ 89.8 µM); in experiment [3] it was 16 µg/mL (≈ 44.9 µM); in experiment [4], 64 µg/mL (≈ 180 µM); in [5] it was 8 µg/mL (≈ 22.5 µM); in experiment [6] it was 64 µg/mL (≈ 180 µM). In addition, the MIC in [7] is 128 µg/mL (≈ 359 µM); in [8], 64 µg/mL (≈ 180 µM); in [9] it was 16 µg/mL (≈ 44.9 µM); in [10], 64 µg/mL (≈ 180 µM); in experiment [11], 128 µg/mL (≈ 359 µM).
Take `N#CCc1cc2c(cc1F)c(=O)c(C(=O)O)cn2Cc1cccc(Cl)c1`: the MIC in experiment [1] came out at 1 µg/mL (≈ 2.7 µM); in [2], 0.5 µg/mL (≈ 1.35 µM); in [3], 0.5 µg/mL (≈ 1.35 µM); in [4], 0.5 µg/mL (≈ 1.35 µM); in [5] it was 0.5 µg/mL (≈ 1.35 µM); in [6] it was 256 µg/mL (≈ 690 µM). For the same compound, the MIC is 2 µg/mL (≈ 5.39 µM) in [7]; 0.25 µg/mL (≈ 0.674 µM) in [8]; 256 µg/mL (≈ 690 µM) in experiment [9]; 16 µg/mL (≈ 43.2 µM) in experiment [10]; 256 µg/mL (≈ 690 µM) in [11].
Regarding `N#CCc1cc2c(cc1F)c(=O)c(C(=O)O)cn2Cc1c(F)cccc1F`, the MIC turned out to be 8 µg/mL (≈ 21.5 µM) in [1]; 2 µg/mL (≈ 5.37 µM) in experiment [2]; 4 µg/mL (≈ 10.7 µM) in [3]; 4 µg/mL (≈ 10.7 µM) in experiment [4]; 4 µg/mL (≈ 10.7 µM) in experiment [5]; 4 µg/mL (≈ 10.7 µM) in experiment [6]. Moreover, the MIC was found to be 32 µg/mL (≈ 86 µM) in experiment [7]; 4 µg/mL (≈ 10.7 µM) in experiment [8]; 2 µg/mL (≈ 5.37 µM) in experiment [9]; 8 µg/mL (≈ 21.5 µM) in experiment [10]; 4 µg/mL (≈ 10.7 µM) in experiment [11].

The record behind these values is ChEMBL document CHEMBL5506059, “Cyanomethylquinolones as a New Class of Potential Multitargeting Broad-Spectrum Antibacterial Agents” (J Med Chem, 2024).
